One may read the inhibition as how much of the control response was suppressed. By IC50 is commonly meant the point on the concentration scale where inhibition reaches its midpoint. Read a low IC50 as greater potency in that assay. What is called Ki is the dissociation constant of the complex between target and ligand, obtained from inhibition or displacement. A low value points to tighter binding.

The source made the active and inactive calls. No cut-off for these calls is given here.

For test [1], the target named is T1, Beta-galactosidase (Bos taurus) (UniProt Q58D55).
T1 sequence (whole entry): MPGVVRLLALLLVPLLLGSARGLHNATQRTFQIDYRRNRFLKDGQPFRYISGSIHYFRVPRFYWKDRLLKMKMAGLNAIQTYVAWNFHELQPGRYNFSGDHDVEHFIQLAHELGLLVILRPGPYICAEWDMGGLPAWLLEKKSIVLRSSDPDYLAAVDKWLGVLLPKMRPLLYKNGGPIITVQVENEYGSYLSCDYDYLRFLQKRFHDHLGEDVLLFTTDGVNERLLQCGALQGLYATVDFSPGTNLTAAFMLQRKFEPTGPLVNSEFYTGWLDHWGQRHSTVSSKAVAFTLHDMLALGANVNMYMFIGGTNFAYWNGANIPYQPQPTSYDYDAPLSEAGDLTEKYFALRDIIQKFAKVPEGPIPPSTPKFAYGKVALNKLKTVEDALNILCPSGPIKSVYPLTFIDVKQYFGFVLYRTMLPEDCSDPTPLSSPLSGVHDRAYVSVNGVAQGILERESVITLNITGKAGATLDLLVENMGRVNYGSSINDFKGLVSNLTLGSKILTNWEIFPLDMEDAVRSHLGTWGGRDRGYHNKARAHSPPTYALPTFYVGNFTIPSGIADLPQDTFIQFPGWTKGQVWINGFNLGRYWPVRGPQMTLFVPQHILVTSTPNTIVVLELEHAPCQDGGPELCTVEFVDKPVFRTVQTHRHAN
The experiment in a line: Inhibition of bovine liver beta-galactosidase at 0.1 mM using p-nitrophenyl glycopyranoside as substrate preincubated for 5 mins followed by substrate addition and measured after 20 mins by visible absorption spectroscopic analysis.

Test [2] is described as follows: Inhibition of human alpha-fucosidase using p-nitrophenyl glycopyranoside as substrate preincubated for 5 mins followed by substrate addition and measured after 20 mins by visible absorption spectroscopic analysis.
Test [3] can be described thus: Inhibition of bovine kidney alpha-fucosidase using p-nitrophenyl glycopyranoside as substrate preincubated for 5 mins followed by substrate addition and measured after 20 mins by visible absorption spectroscopic analysis. The arrangement: species or system Bos taurus.
The species named for test [4] is Bos taurus. The experiment in a line: Inhibition of bovine kidney alpha-fucosidase at 5 uM using p-nitrophenyl glycopyranoside as substrate preincubated for 5 mins followed by substrate addition and measured after 20 mins by visible absorption spectroscopic analysis relative to control.
For test [5], the species on record is Bos taurus. Kind of test: Inhibition of bovine kidney alpha-fucosidase at 0.120 uM using p-nitrophenyl glycopyranoside as substrate preincubated for 5 mins followed by substrate addition and measured after 20 mins by visible absorption spectroscopic analysis relative to control.
Test [6] is filed under the species Bos taurus. Kind of test: Inhibition of bovine kidney alpha-fucosidase at 0.120 uM using p-nitrophenyl glycopyranoside as substrate preincubated for 5 mins followed by substrate addition and measured after 20 mins by visible absorption spectroscopic analysis.
Test [7] can be described thus: Competitive inhibition of bovine kidney alpha-fucosidase using p-nitrophenyl glycopyranoside as substrate preincubated for 5 mins followed by substrate addition and measured after 20 mins by Dixon plot analysis. More on the design: species or system Bos taurus.
Test [8] in a line: Uncompetitive inhibition of bovine kidney alpha-fucosidase using p-nitrophenyl glycopyranoside as substrate preincubated for 5 mins followed by substrate addition and measured after 20 mins by Cornish-Bowden plot analysis. More on the design: species or system Bos taurus.
Test [9] in a line: Uncompetitive inhibition of human alpha-fucosidase using p-nitrophenyl glycopyranoside as substrate preincubated for 5 mins followed by substrate addition and measured after 20 mins by Cornish-Bowden plot analysis.
The nature of test [10]: Competitive inhibition of human alpha-fucosidase using p-nitrophenyl glycopyranoside as substrate preincubated for 5 mins followed by substrate addition and measured after 20 mins by Dixon plot analysis.
Test [11] has as its target T2, Alpha-mannosidase (Canavalia ensiformis) (UniProt C0HJB3).
T2 sequence (whole entry): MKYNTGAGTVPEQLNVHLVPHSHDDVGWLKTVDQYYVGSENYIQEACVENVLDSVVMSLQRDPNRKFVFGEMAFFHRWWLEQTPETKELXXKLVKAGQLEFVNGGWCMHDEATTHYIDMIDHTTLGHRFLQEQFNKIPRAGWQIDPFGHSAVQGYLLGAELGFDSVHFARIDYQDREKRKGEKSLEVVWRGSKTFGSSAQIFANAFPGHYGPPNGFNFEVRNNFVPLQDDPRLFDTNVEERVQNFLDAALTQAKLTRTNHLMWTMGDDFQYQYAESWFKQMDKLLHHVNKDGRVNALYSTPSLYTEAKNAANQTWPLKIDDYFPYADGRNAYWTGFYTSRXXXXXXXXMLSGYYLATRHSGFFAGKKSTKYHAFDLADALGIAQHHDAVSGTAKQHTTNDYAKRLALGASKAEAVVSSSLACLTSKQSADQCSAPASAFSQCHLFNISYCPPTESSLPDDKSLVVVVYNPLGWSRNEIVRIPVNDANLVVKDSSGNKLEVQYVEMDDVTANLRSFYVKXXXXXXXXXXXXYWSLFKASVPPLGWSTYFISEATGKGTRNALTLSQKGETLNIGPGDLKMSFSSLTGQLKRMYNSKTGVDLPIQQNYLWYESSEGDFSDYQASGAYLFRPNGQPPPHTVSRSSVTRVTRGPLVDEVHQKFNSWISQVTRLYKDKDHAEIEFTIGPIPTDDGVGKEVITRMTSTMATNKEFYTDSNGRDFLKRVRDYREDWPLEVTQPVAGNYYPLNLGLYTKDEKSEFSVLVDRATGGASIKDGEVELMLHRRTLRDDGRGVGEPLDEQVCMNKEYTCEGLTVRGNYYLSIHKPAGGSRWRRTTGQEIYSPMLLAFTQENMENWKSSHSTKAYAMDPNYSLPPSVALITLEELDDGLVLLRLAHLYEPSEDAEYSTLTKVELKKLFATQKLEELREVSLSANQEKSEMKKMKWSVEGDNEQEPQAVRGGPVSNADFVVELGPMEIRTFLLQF
Kind of test: Inhibition of jack beans alpha-mannosidase at 0.1 mM using p-nitrophenyl glycopyranoside as substrate preincubated for 5 mins followed by substrate addition and measured after 20 mins by visible absorption spectroscopic analysis.

The test system of the next test is Canavalia ensiformis. Kind of test: Inhibition of jack beans beta-N-acetylglucosaminidase at 0.1 mM using p-nitrophenyl glycopyranoside as substrate preincubated for 5 mins followed by substrate addition and measured after 20 mins by visible absorption spectroscopic analysis.
Test [12] deals with Alpha-galactosidase (Coffea arabica) (UniProt Q42656). Kind of test: Inhibition of coffee beans alpha-galactosidase at 0.1 mM using p-nitrophenyl glycopyranoside as substrate preincubated for 5 mins followed by substrate addition and measured after 20 mins by visible absorption spectroscopic analysis.
The next test relates to Aspergillus niger. The experiment in a line: Inhibition of Aspergillus niger amyloglucosidase at 0.1 mM using p-nitrophenyl glycopyranoside as substrate preincubated for 5 mins followed by substrate addition and measured after 20 mins by visible absorption spectroscopic analysis.
A further test concerns Saccharomyces cerevisiae. The experiment in a line: Inhibition of Saccharomyces cerevisiae alpha-glucosidase at 0.1 mM using p-nitrophenyl glycopyranoside as substrate preincubated for 5 mins followed by substrate addition and measured after 20 mins by visible absorption spectroscopic analysis.
The next test has as its system Prunus dulcis. The experiment in a line: Inhibition of almond beta-glucosidase at 0.1 mM using p-nitrophenyl glycopyranoside as substrate preincubated for 5 mins followed by substrate addition and measured after 20 mins by visible absorption spectroscopic analysis.
The test system of the next test is Oryza sativa. The experiment in a line: Inhibition of rice beta-glucosidase at 0.1 mM using p-nitrophenyl glycopyranoside as substrate preincubated for 5 mins followed by substrate addition and measured after 20 mins by visible absorption spectroscopic analysis.
The next test relates to Cornu aspersum. The experiment in a line: Inhibition of snail beta-mannosidase at 0.1 mM using p-nitrophenyl glycopyranoside as substrate preincubated for 5 mins followed by substrate addition and measured after 20 mins by visible absorption spectroscopic analysis.
The species entered for a further test is Homo sapiens. Kind of test: Inhibition of human alpha-fucosidase at 0.1 mM using p-nitrophenyl glycopyranoside as substrate preincubated for 5 mins followed by substrate addition and measured after 20 mins by visible absorption spectroscopic analysis.
Test [13] concerns the target T3, Beta-galactosidase (Bos taurus, UniProt Q58D55).
T3 sequence (Q58D55 whole entry): T1 sequence (whole entry)
The experiment in a line: Inhibition of bovine liver beta-galactosidase using p-nitrophenyl glycopyranoside as substrate preincubated for 5 mins followed by substrate addition and measured after 20 mins by visible absorption spectroscopic analysis.

The target in test [14] is T1, Beta-galactosidase (Bos taurus). The experiment in a line: Inhibition of bovine liver beta-galactosidase at 200 uM using p-nitrophenyl glycopyranoside as substrate preincubated for 5 mins followed by substrate addition and measured after 20 mins by visible absorption spectroscopic analysis relative to control.
Test [15] is filed under the species Bos taurus. The experiment in a line: (§1) Inhibition of bovine kidney alpha-fucosidase at 0.1 mM using p-nitrophenyl glycopyranoside as substrate preincubated for 5 mins followed by substrate addition and measured after 20 mins by visible absorption spectroscopic analysis relative to control.
For test [16], the target named is T3, Beta-galactosidase. Kind of test: Competitive inhibition of bovine liver beta-galactosidase using p-nitrophenyl glycopyranoside as substrate preincubated for 5 mins followed by substrate addition and measured after 20 mins by Lineweaver-Burk plot analysis.
Test [17] is described as follows: as §1. The arrangement: species or system Bos taurus.

Chain of Alpha-galactosidase (Coffea arabica) (Q42656 16-378 limits assumed): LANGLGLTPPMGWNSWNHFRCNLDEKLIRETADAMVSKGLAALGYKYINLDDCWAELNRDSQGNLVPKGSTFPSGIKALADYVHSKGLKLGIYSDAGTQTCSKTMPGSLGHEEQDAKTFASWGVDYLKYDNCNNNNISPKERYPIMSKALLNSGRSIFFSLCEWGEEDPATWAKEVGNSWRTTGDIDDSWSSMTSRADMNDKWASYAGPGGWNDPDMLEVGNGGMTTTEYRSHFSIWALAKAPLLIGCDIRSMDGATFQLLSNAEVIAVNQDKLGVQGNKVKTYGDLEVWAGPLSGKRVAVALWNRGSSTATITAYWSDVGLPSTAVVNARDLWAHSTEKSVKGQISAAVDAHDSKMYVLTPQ

As to `C[C@@H]1N[C@@H](c2cn(-c3ccc(S(=O)(=O)c4ccc(-n5cc([C@@H]6N[C@@H](C)[C@@H](O)[C@H]6O)nn5)cc4)cc3)nn2)[C@H](O)[C@@H]1O`, the inhibition result (in test [1]; in test [11]; with Canavalia ensiformis; in test [12]; in the test with Aspergillus niger; in the test on Saccharomyces cerevisiae) was “inactive” each time. Further, the inhibition result in the test with Prunus dulcis, in the test with Oryza sativa and with Cornu aspersum was “inactive” throughout. The half-maximal inhibitory concentration (IC50) was found to be 210 nM in test [2] and 0.48 nM in test [3]. Besides, the values for the inhibition in the test filed under Bos taurus [4] and in the test filed under Bos taurus [5] were 91% and 96%, respectively. Moreover, the inhibition result in the test listed under Bos taurus [6] was “Active”. The Ki in test [7] came to 0.15 nM; in [8], 0.52 nM; in test [9] it was 150 nM; in test [10], 60 nM.

In the case of `Cc1oc([C@H]2NC[C@@H](O)[C@H]2O)cc1C(=O)NCc1cn(CCCCCCCCCCCCn2cc(CNC(=O)c3cc([C@H]4NC[C@@H](O)[C@H]4O)oc3C)nn2)nn1`, the inhibition result (in the test filed under Homo sapiens; in [11]; in the test with Canavalia ensiformis; in [12]; in the test on Aspergillus niger; with Saccharomyces cerevisiae) was “inactive” in each case. Also, the inhibition entry in the test on Prunus dulcis, with Oryza sativa and with Cornu aspersum was “inactive” in each case. Besides, the IC50 against Beta-galactosidase [13] came to 9600 nM. Further, the inhibition turned out to be 88% in [14] and 32% in the test listed under Bos taurus [15]. Also, the Ki on Beta-galactosidase [16] was 5800 nM.

Take `CCCCCCn1cc(CNC(=O)c2cc([C@H]3NC[C@@H](O)[C@H]3O)oc2C)nn1`: the inhibition entry (in the test listed under Homo sapiens; in [11]; in the test on Canavalia ensiformis; in [12]; in the test with Aspergillus niger; in the test on Saccharomyces cerevisiae) was “inactive” each time. In addition, the inhibition entry with Prunus dulcis, with Oryza sativa and with Cornu aspersum was “inactive” in each case. In addition, the values for the IC50 (at Beta-galactosidase [13]; in test [17]) were 94000 nM and 37000 nM, respectively. The compound further yielded a Ki at Beta-galactosidase [16] of 58000 nM.

The values above are taken from ChEMBL document CHEMBL4270512, “Harnessing pyrrolidine iminosugars into dimeric structures for the rapid discovery of divalent glycosidase inhibitors” (Eur J Med Chem, 2018).
